Measurements published in patent US20110200531A1, “TREATMENT AND DIAGNOSIS OF CENTRAL NERVOUS SYSTEM DISORDERS” (THE REGENTS OF THE UNIVERSITY OF CALIFORNIA, priority 2009, published 2011).
Entries after “also recorded” stand apart in the source; their conditions may differ.

Columns and labels:
[1] = test system: 3×Tg-AD mice; experiment: Learning and memory in 3×Tg AD mice (novel object recognition, Morris water maze); format: in vivo; settings: 16-month old 3×Tg-AD females
Experimental: Both 16-month old 3×Tg-AD and background-matched wild type (WT) mice (females) were fed with TMPcontaining or nutrients matched control for 60 days as described in FIG. 3. (A) On day 61, all the mice were tested for object recognition as previously described. Briefly, mice (n=14 for each group) were habituated to a 60×30 cm container for 5 min. Two identical objects were placed in the bottom of the cage as mirror images of each other. The animal was trained for 5 min followed by a 5 min retention interval in the home cage. Then one of the objects in the test container was replaced with a novel object. During the 3-min probe trial, the mouse was placed in the cage and time spent investigating both objects was measured. A recognition index (R1) score is depicted as: (TimeN (in seconds for novel object)/TimeTotal (in seconds for both old and novel objects))×100. (B-D) Starting on day 62, all the mice were trained for 9 days on the Morris water maze (MWM) exactly as described for the behavior testing. […] (C) MWMprobe trial for number of platform location crosses, and (D) MWM probe trial for time spent in the target quadrant. As shown by the p values, (*) indicates significant improvement by TMP treatments with respect to the corresponding controls.
FIG. 21A-D: Improvement of learning and memory in aged 3×Tg AD mice by TMP treatment. Novel object recognition task was performed. A recognition index (R1) score is depicted as: [TimeN (in seconds for novel object)/TimeTotal (in seconds for both old and novel objects)]×100. B-D Starting on day 62, all the mice were trained for 9 days on the Morris water maze (MWM) for the behavior testing. […] (C) MWM probe trial for number of platform location crosses, and (D) MWM probe trial for time spent in the target quadrant. As shown by the p values, (*) indicates significant improvement by the compound treatments with respect to the corresponding controls.
TMP improves pathology in brains of 3×Tg-AD mice and results in increased memory and learning (See FIGS. 3, 4, and 10). In these mice, the earliest pathological hallmark is the accumulation of intraneuronal Aβ in the hippocampus, cortex and amygdala in 4 month old 3×Tg-AD homozygous mice. […] Between 4-6 months of age 3×Tg-AD homozygous mice develop diffuse amyloid plaques in the neocortex. At 6 months the retention deficits are associated with significant impairments in spatial learning of the Morris Water Maze task. […] Brain and retina pathology was evaluated by immunohistochemistry with specific antibodies and learning and memory performance were scored using the Novel Object Recognition Task and using Morris Water Maze trials.
The ability of TMP-N to improve learning and memory in 3×Tg AD mice was assessed using novel object recognition task. […]

[2] = test system: SH-SY5Y human neuroblastoma cells; experiment: Survival of SH-SY5Y cells following exposure to hydrogen peroxide; format: cell-based; settings: for cell survival following exposure to hydrogen peroxide: SH-SY5Y, 25-50 μM, hydrogen peroxide 10-100 μM; for oxidative stress measured by production of malondialdehyde (MDA) and hydrogen peroxide: cultured cells (cell type not specified); for difference in protective efficacy between the two differently-sourced TMP compounds: statistical analysis, TMP-N vs TMP-S
[3] = test system: mouse primary neurons; experiment: Survival of mouse primary neurons following exposure to hydrogen peroxide; format: cell-based; settings: 25-50 μM, hydrogen peroxide 10-100 μM
[4] = test system: 5×FAD mice; experiment: Novel object recognition task in 5×FAD mice; format: in vivo; settings: chow containing 300 mg/Kg from postnatal day 61 for 4 months; N=8-12
Experimental: FIG. 22: Improvement of memory in 5×FAD mice by synthetic form of TMP treatments. Novel object recognition task was performed and depicted as FIG. 21.
Wild type littermates were used for comparison. All the mice were fed with normal chow (Vehicle) or containing 300 mg/Kg either TMP-N or TMP-S from postnatal day 61 for exactly 4 months until the day for the completion of behavioral assessments.

[5] = test system: 5×FAD mouse brains; experiment: Abeta immunoreactivity (6E10) in 5×FAD mouse brains; format: in vivo, mice; settings: chow containing 300 mg/Kg from postnatal day 61 for 4 months
Excerpt: Animal tissues were perfused with 1×PBS followed by overnight fixation in 4% paraformaldehyde in cold room. Vibrotome sections (˜50 μm thick) were immunostained with 6E10 antibody, which recognizes all forms of Abeta, and visualized by fluorescence microscopy.

[6] = test system: 5×FAD mouse retinas; experiment: Retinal ganglion cell (RGC) quantification in 5×FAD mouse retinas; format: in vivo, mice; settings: chow containing 300 mg/Kg from postnatal day 61 for 4 months
Experimental: FIG. 24: Preservation of retinal ganglion cells (RGC) in 5×FAD mice by TMP (see Section 6.3.1). Numbers of RGC of wild-type, control (Vehicle) and TMP-treated mice were quantified.
5×FAD mice and wild type littermates (control) were fed with normal chow (Vehicle) or chow containing 300 mg/Kg of either TMP-N or TMP-S (see Section 6.3.1) from postnatal day 61 for exactly 4 months until the day of analysis. RGC cells were quantified in cross retinal sections as described in Liu et al., American Journal of Pathology, 2009.

[7] = test system: Tg2576 mice; experiment: Aβ-related vaccinations in Tg2576 mice: retinal and brain pathology; format: in vivo; settings: for Aβ deposits in hippocampal and neocortical areas of brain (6E10) / Aβ immunoreactivity in retinal microvessels / retinal amyloid angiopathy score: 10-month vaccination; for Aβ immunoreactivity in retinal microvessels / retinal amyloid angiopathy score: Aβ and vWF double-labeled microvessels, vs sham-immunized Tg2576
Experimental: The Aβ oligomer antigen was prepared from Aβ1-40 based on our previously published work (Kayed et al., 2003). Briefly, lyophilized Aβ1-40 peptides were resuspended in 50% acetonitrile in water and relyophilized. Soluble prefibrillar oligomers were prepared by dissolving 1.0 mg of peptide in 400 μl of hexafluoroisopropanol for 10˜20 minutes at room temperature. The resultant seedless solution (100 μl) was added to 900 μl of MilliQ H2O in a siliconized Eppendorf tube. After 10˜20 minutes incubation at room temperature, the samples were centrifuged for 15 minutes at 14,000×g, and the supernatant fraction (pH 2.8˜3.5) was transferred to a new siliconized tube and subjected to a gentle stream of N2 for 5˜10 minutes to evaporate the hexafluoroisopropanol. […] Oligomers were validated by atomic force microscopy, electron microscopy, and size exclusion chromatography as described previously (Kayed et al., 2003). The Aβ fibril was prepared from Aβ1-42, because it is more fibrillogenic as compared with Aβ1-40. Aβ1-40, predominantly in fibrillary form, was previously studied in a randomized, double-blind, placebo-controlled phase 2a clinical trial, study AN1792(QS-21)-201 by Gilman and colleagues (Gilman et al., 2005). Fibrils were formed by dissolving the lyophilized Aβ1-42 in 50% hexafluoroisopropanol and stirred with closed caps for 7 days. Solution is stirred again for 2 days in capped tubes with 20-gauge needle holes on the top to allow the hexafluoroisopropanol to evaporate. This whole preparation was done in a fume food to accelerate evaporation and minimize falling of dust or other foreign material. Fibrils were precipitated by centrifugation for 15 minutes at 14,000 rpm and washed in PBS, and resuspended at 2 mg/ml. For the prefibrillar oligomer antigen, Aβ oligomer (AO) molecular mimic was prepared by conjugating Aβ1-40 via a C-terminal thioester to 5-nm colloidal gold as described previously (Kayed and Glabe, 2006). […] Immunization schemes were conducted in a similar way as described previously (Zhou et al., 2005). […] Administration of an equivalent volume of PBS with the adjuvant but without any peptide antigen to both wild-type and transgenic mice was used as control. All experimental procedures were performed under protocols approved by the University of California Irvine Institutional Animal Care and Use Committee. Tissue Preparation: Mice were deeply anesthetized with an overdose of Nembutal (100 mg/kg, i.p.) and perfused transcardially with ice-cold PBS. The eyes were directly collected and fixed overnight with 4% paraformaldehyde in PBS (pH 7.4, 4° C.) following brain removal. Fixed eyes were stored in PBS containing 20% sucrose and 0.05% sodium azide (NaN3) at 4° C. until use. Following removal of lenses with forceps fixed eyes were cryomolded with OCT. Cross-retinal cryostat sections (12 μm) were thaw-mounted onto “Superfrost plus” glass slides (Fisher, Tustin, Calif.), air-dried for 30 minutes and stored at 4° C. before staining. […] Immunohistochemistry and Quantification: […] The immunoreactivity of APP, hyperphosphorylated tau (AT8), and Aβ in selected sections was also detected using the avidin-biotin complex method, followed by staining with DAB and brief counterstaining with hematoxylin. […] The results were evaluated by either fluorescence or conventional microscopy with a Leica DM microscope. Images were recorded using a Spot II charge-coupled device camera with equal exposure times for all different groups of tissues. […]

Cc1nc(C)c(C)nc1C [TMP-N, tetramethylpyrazine]
Morris water maze (MWM) acquisition performance ([1]; TMP diet 60 days, trained 9 days from day 62): significantly improved the performance of 3×Tg-AD mice | learning and memory (object recognition, MWM probe trials) ([1]; TMP-containing diet): significantly restored learning and memory | cell survival following exposure to hydrogen peroxide [2]: significantly increased cell survival | oxidative stress measured by production of malondialdehyde (MDA) and hydrogen peroxide [2]: remarkable reduction of oxidative stress | difference in protective efficacy between the two differently-sourced TMP compounds [2]: no significant difference | cell survival following exposure to hydrogen peroxide [3]: significantly increased cell survival | memory performance, novel object recognition task [4]: some negative effects; also recorded: slight negative effect on the memory performance | Abeta immunoreactivity / deposits in brain (6E10) [5]: Abeta deposits were decreased in both cortical and hippocampal regions | number of retinal ganglion cells (RGC) [6]: slightly preserved RGC; also recorded: slight protective effect on RGC

AO: Aβ oligomer molecular mimic prepared by conjugating Aβ1-40 via a C-terminal thioester to 5-nm colloidal gold; vaccine immunogen
number of Aβ plaques / Aβ deposits in retina ([7]; 100 μg s.c. with incomplete Freund's adjuvant once a month for 10 months, vs PBS adjuvant): significant reduction in the number of Aβ plaques | Aβ deposits in hippocampal and neocortical areas of brain (6E10) [7]: notably less Aβ deposits | Aβ immunoreactivity in retinal microvessels / retinal amyloid angiopathy score [7]: even greater Aβ immunoreactivity

Cc1nc(C)c(C)nc1C [TMP-S, tetramethylpyrazine]
cell survival following exposure to hydrogen peroxide [2]: significantly increased cell survival | oxidative stress measured by production of malondialdehyde (MDA) and hydrogen peroxide [2]: remarkable reduction of oxidative stress | difference in protective efficacy between the two differently-sourced TMP compounds [2]: no significant difference | cell survival following exposure to hydrogen peroxide [3]: significantly increased cell survival | memory performance, novel object recognition task [4]: significantly improved memory performance; also recorded: significantly improved this performance | number of retinal ganglion cells (RGC) [6]: significantly preserved RGC; also recorded: significantly increased number of RGC

AF: Aβ fibril prepared from Aβ1-42; vaccine immunogen
Aβ deposits in hippocampal and neocortical areas of brain (6E10) [7]: notably less Aβ deposits | Aβ immunoreactivity in retinal microvessels / retinal amyloid angiopathy score [7]: even greater Aβ immunoreactivity
